Experimental findings from patent US9765075B2, “Substituted bridged urea analogs as sirtuin modulators” (GLAXOSMITHKLINE LLC, priority 2013, dated 2017) are described below.

Substitutions are numbered along the chain they refer to. Structures can show the parent of a compound that is named as a salt.

Assay in all cases: SIRT1 inhibition assay, OAcADPr mass spectrometry
Holding throughout (format): biochemical

One assay deals with T1, full-length hSIRT1 T219A (Homo sapiens, UniProt Q96EB6, T219A).
T1 construct: The following point mutants of full-length hSIRT1 were generated; His6 (C); made in house
T1 sequence (Q96EB6 1-747 T219A): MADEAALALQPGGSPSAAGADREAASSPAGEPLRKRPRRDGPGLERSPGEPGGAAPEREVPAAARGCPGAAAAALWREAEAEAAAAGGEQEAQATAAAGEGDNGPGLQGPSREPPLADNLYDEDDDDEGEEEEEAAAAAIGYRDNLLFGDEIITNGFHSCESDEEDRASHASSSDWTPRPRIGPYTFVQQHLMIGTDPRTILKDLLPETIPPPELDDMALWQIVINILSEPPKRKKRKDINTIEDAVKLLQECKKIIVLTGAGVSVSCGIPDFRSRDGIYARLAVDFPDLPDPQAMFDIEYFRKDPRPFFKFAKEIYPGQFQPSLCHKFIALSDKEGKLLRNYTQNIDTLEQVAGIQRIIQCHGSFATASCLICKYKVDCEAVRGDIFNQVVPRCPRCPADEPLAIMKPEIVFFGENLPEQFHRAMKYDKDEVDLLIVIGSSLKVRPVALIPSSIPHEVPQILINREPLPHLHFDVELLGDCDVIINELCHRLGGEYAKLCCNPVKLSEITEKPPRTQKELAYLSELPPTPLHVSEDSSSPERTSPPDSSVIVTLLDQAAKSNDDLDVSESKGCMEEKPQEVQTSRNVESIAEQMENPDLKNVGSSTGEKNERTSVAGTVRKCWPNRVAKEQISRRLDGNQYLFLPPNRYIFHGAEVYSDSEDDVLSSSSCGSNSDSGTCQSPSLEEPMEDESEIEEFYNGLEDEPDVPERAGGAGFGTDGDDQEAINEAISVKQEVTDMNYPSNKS

Assay [1] concerns the target T2, full-length hSIRT1 wild-type (Homo sapiens, UniProt Q96EB6).
T2 construct: Full-length human SIRT1 (hSIRT1) proteins were expressed with a C-terminal His6 tag; His6 (C); made in house
T2 sequence (Q96EB6 1-747): T1 sequence (Q96EB6 1-747 T219A) with A219T

For the next assay, the target named is T3, full-length hSIRT1 E230Q (Homo sapiens, UniProt Q96EB6, E230Q).
T3 construct: His6 (C); made in house
T3 sequence (Q96EB6 1-747 E230Q): T1 sequence (Q96EB6 1-747 T219A) with A219T, E230Q

For orientation: IC50 means the point on the concentration scale where inhibition reaches its midpoint. A lower IC50 goes with higher potency. As for `CCCC[C@H](NC(=O)[C@H](CC(C)C)NC(=O)[C@H](CCCCNC(=O)C(F)(F)F)NC(=O)[C@H](CCCCN)NC(=O)[C@H](Cc1c[nH]cn1)NC(=O)[C@H](CCCNC(=N)N)NC(C)=O)C(=O)N[C@@H](Cc1ccccc1)C(N)=O` [TFA-p53 7-mer, Ac-RHK-K^TFA-L-Nle-F-NH2], the IC50 on full-length hSIRT1 T219A was found to be 490 ± 20 nM; in assay [1] it was 680 ± 70 nM; at full-length hSIRT1 E230Q, 860 ± 60 nM.
